Data reported in article PMC7988154, “Mechanism of substrate transport and inhibition of the human LAT1-4F2hc amino acid transporter” (Cell Discovery, 2021).

These compounds were tested against T1, LAT1 (SLC7A5) (Homo sapiens, UniProt Q01650) (assay: cryo-EM structure of the LAT1-4F2hc complex; IC50 from [3H]-L-leucine uptake in HT-29 cells).
T1 construct: with 4F2hc (SLC3A2)
Assay type: cell-based

T1 sequence (Q01650 whole entry): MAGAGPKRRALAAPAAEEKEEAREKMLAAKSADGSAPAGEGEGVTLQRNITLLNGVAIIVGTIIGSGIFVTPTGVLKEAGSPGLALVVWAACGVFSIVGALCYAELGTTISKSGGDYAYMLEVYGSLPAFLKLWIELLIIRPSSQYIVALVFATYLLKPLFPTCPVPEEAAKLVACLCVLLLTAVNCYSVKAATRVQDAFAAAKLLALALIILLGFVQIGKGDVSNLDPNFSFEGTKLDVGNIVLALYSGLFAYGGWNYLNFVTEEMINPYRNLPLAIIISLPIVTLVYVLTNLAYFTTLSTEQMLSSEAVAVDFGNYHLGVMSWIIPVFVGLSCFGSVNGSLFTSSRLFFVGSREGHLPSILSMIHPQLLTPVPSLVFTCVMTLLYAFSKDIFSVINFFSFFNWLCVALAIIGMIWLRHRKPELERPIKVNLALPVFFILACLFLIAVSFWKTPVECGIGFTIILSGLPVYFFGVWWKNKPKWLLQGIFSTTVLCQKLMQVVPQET
T1 sequence (P08195 103-630 partner): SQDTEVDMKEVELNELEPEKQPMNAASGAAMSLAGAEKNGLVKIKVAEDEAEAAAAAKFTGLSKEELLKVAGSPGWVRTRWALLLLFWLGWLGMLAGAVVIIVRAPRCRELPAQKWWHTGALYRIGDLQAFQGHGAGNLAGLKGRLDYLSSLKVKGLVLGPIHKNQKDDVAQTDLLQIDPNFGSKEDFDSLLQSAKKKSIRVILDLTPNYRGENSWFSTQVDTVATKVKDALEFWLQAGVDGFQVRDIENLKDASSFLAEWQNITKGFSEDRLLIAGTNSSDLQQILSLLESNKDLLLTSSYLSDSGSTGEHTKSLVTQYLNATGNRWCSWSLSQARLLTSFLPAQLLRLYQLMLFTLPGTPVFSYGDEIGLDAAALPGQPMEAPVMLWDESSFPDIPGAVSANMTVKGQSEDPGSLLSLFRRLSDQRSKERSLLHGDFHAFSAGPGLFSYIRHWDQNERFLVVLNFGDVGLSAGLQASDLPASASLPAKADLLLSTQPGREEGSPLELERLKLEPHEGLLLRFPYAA

Row | IC50 [nM] | Compound
1 | 165 | NC1(C(=O)O)CCc2ccc(OCc3cccc4ccccc34)cc2C1 (stereo not drawn) [JX-075]
2 | 121 | NC1(C(=O)O)CCc2ccc(OCc3ccccc3-c3ccccc3)cc2C1 (stereo not drawn) [JX-078]
3 | 234 | NC1(C(=O)O)CCc2ccc(OCc3ccccc3-c3nc4ccccc4o3)cc2C1 (stereo not drawn) [JX-119]
